Key:
[1] = test system: Hirse Sorte Mironovskoe 94; test: Field test of pollen sterilisation, millet Mironovskoe 94; format: in vivo; details: 1% aqueous emulsion, 8 kg/ha; for Prozentsatz der Sterilität / Anzahl von Körnern der Rispe bei freier Bestäubung / Anzahl von Körnern der Rispe im Isolator: period V of organogenesis; for Anzahl von Körnern der Rispe bei freier Bestäubung: free pollination; for Anzahl von Körnern der Rispe im Isolator: isolated panicles; for Prozentsatz des Ansetzens von Körnern bei freier Bestäubung: period V, non-isolated control = 100%
Excerpt: (§1) Die gametozide Aktivität der erfindungsgemässen Sterilisationsmittel war im Feldversuch in verschiedenen Bodenklimatischen Zonen mit Teilstücken von 10 m^2 Grösse in drei- bis viermaliger Wiederholung nachgewiesen. Jedes Sterilisationsmittel wurde mindestens 5 Jahre lang geprüft.
(§2) Die Entwicklung der Perioden der Organogenese wird zytologischüberwacht. Die Behandlung von Pflanzen mit dem Sterilisationsmittel erfolgt am Anfang der fünften Periode der Organogenese nach Kupermann.
(§3) Mit dem Ahrenschiebe verwirklicht man die Isolierung von Hauptähren und anderen Stockwerken in Pergamentbeuteln. Bei Weizen und Tritikale werden Einzelisolatoren verwendet. Bei Roggen schliesst man je Ähre 5 bis 7 verschiedene nebeneinander befindliche Pflanzen unter einen gemeinsamen Isolator ein. Bei Hirse wird jede Rispe getrennt isoliert. Der Sterilitätsprozentsatz (X) für Weizen, Roggen, Tritikale und Hirse wird nach folgender Formel [formula] ermittelt.
(§4) Die Kornzahl in nicht isolierten ähren von Kontrollpflanzen wird bedingt für 100% Ansetzen bei freier Bestäubung angenommen.
(§5) Um zuverlässige Angaben zu erhalten, verwendet man 20 bis 25 Isolatoren jeder Wiederholung für Weisen und Tritikale, 10 bis 15 Gruppenisolatoren jeder Wiederholung für Roggen und Hirse.
Pflanzen der Hirse Sorte Mironovskoe 94 werden in der V. Periode der Organogenese (nach Kupermann) mit einer 1%igen wässrigen Emulsion von N-(2-Dimethylaminoäthyl)maleaminsäure, N-(3-Dimethylaminopropyl)maleaminsäure, N-Äthylmaleaminsäure, N-(2-Hydroxyäthyl)maleaminsäure, N-Karbamoylmaleaminsäure behandelt. Die Emulsion enthält 0,01 Masse% Dimethylaulfoxid und 0,1 Masse% Kalziumalkylbenzolsulfonat mit 12 bis 14 Kohlenstoffatomen. Der Verbrauch an Präparat beträgt 8 kg/ha. Als Kontrolle dienen Pflanzen, behandelt mit einem Verdünner ohne Sterilisationsmittel. Die Prüfergebnisse sind in der Tabelle 12 dargestellt. […] Periode der Organogenese erhalten.

[2] = test system: Winterweizens Sorte Mir.onovskaya 808; test: Field test of pollen sterilisation (gametocidal activity), winter wheat Mironovskaya 808; format: in vivo, Winterweizen; details: 2% aqueous emulsion, 20 kg/ha; for Prozentsatz der Sterilität / Anzahl von Körnern der Ähre bei freier Bestäubung / Anzahl von Körnern der Ähre im Isolator: period V of organogenesis; for Anzahl von Körnern der Ähre bei freier Bestäubung: free pollination; for Anzahl von Körnern der Ähre im Isolator: isolated ears; for Prozentsatz des Ansetzens von Körnern bei freier Bestäubung: period V, non-isolated control ears = 100%
Excerpt: Als Emulgierungsmittel wird 0,1 Masse% Kalziumalkylbenzolsulfonat mit 12 bis 14 Kohlenstoffatomen hinzugefügt. Als Adjuvans fährt man in die Emulsion 0,01 Masse% Dimethylsulfoxid ein. Der Verbrauch an Präparat beträgt 20 kg/ha. Als Kontrolle dienen Pflanzen, behandelt mit einem Verdünner ohne Sterilisationsmittel.

[3] = test system: Sommerweizens Sorte Botanicheskaya 4; test: Field test of pollen sterilisation, spring wheat Botanicheskaya 4; format: in vivo, Sommerweizen; details: 1% aqueous emulsion, 6 kg/ha; for Prozentsatz der Sterilität / Anzahl von Körnern der Ähre bei freier Bestäubung / Anzahl von Körnern der Ähre im Isolator: period V of organogenesis; for Anzahl von Körnern der Ähre bei freier Bestäubung: free pollination; for Anzahl von Körnern der Ähre im Isolator: isolated ears; for Prozentsatz des Ansetzens von Körnern bei freier Bestäubung: period V, non-isolated control ears = 100%
Excerpt: Pflanzen des Sommerweizens Sorte Botanicheskaya 4 werden in der V. Periode der Organogenese (nach Kupermann) mit einer 1%igen Wässrigen Emulsion von N-(2-Dimethyl-aminoäthyl)-maleaminsäure, N-(3-Dimethylaminopropyl)-maleaminsäure, N-Äthylmaleaminsäure, N-(2-Hydroxyäthyl)-maleaminsäure bzw. N-Karbamoylmaleaminsäure behandelt. Die Emulsion enthält 0,5 Masse% Kalziumalkylbenzolsulfonat mit 12 bis 14 Kohlenstoffatomen und 0,01 Masse% Dimethylsulfoxid als Adjuvans. Der Verbrauch an Präparat beträgt 6 kg/ha. Als Kontrolle dienen Pflanzen, behandelt mit einem Verdünner ohne Sterilisationsmittel.

[4] = test system: tetraploidem Roggen Sorte Belta; test: Field test of pollen sterilisation, tetraploid rye Belta; format: in vivo; details: 1% aqueous emulsion, 10 kg/ha; for Prozentsatz der Sterilität / Anzahl von Körnern der Ähre bei freier Bestäubung / Anzahl von Körnern der Ähre im Isolator: period V of organogenesis; for Anzahl von Körnern der Ähre bei freier Bestäubung: free pollination; for Anzahl von Körnern der Ähre im Isolator: isolated ears; for Prozentsatz des Ansetzens von Körnern bei freier Bestäubung: period V, non-isolated control ears = 100%
Excerpt: as §1, §2, §3, §4, §5
Pflanzen von tetraploidem Roggen Sorte Belta werden in der V. Periode der Organogenese (nach Kupermann) mit einer 1%igen wässrigen Emulsion von N-(2-Dimethylamino- .äthyl)maleaminsäure, N-(3-Dimethylaminopropyl)maleaminsäure, N-Äthylmaleaminsäure, N-(2-Hydroxyäthyl)maleaminsäure bzw. Karbamoylmaleaminsäure behandelt. Die Emulsion enthält 0,5 Masse% Kalziumalkylbenzolsulfonat mit 12 bis 14 Kohlenstoffatomen und 0,01 Masso% Tetrahydrofuran. Der Verbrauch an Präparat beträgt 10 kg/ha. Die Prüfergebnisse sind in der Tabelle 5 dargestellt. […] Periode der Organogenese erhalten.

[5] = test system: diploidem Roggen Sorte Talovskaya 12; test: Field test of pollen sterilisation, diploid rye Talovskaya 12; format: in vivo; details: 1% aqueous emulsion, 6 kg/ha; for Prozentsatz der Sterilität / Anzahl von Körnern der Ähre bei freier Bestäubung / Anzahl von Körnern der Ähre im Isolator: period V of organogenesis; for Anzahl von Körnern der Ähre bei freier Bestäubung: free pollination; for Anzahl von Körnern der Ähre im Isolator: isolated ears
Excerpt: (§6) Mit dem Ahrenschiebe verwirklicht man die Isolierung von Hauptähren und anderen Stockwerken in Pergamentbeuteln. […] Bei Roggen schliesst man je Ähre 5 bis 7 verschiedene nebeneinander befindliche Pflanzen unter einen gemeinsamen Isolator ein. […] Der Sterilitätsprozentsatz (X) für Weizen, Roggen, Tritikale und Hirse wird nach folgender Formel [formula] ermittelt.
Pflanzen von diploidem Roggen Sorte Talovskaya 12 werden in der V. Periode der Organogenese (nach Kupermann) mit einer 1%igen wässrigen Emulsion von N-(2-Di- methylaminoäthyl)-maleaminsäure, N-(3-Dimethylaminopropyl)-maleaminsäure, N-Äthylmaleaminsäure, N-(2-Hydroxyäthyl)maleaminsäure, N-Karbamoylmaleaminsäure behandelt. Die Emulsion enthält 0,01 Masse% Dodezylsulfat und 0,1 Masse% Kalziumalkylbenzolsulfonat mit 12 bis _14 Kohlenstoffatomen. Der Verbrauch an Präparat beträgt 6 kg/ha. Als Kontrolle dienen Pflanzen, behandelt mit einem Verdünner ohne Sterilisationsmittel.

[6] = Toxicity test in animals (LD50); details: in vivo; animal test, per kg animal weight; species and route not given
Excerpt: Alle erfindungsgemässen N-substituierten Maleaminsäuren, welche als Sterilisationsmittel zur Verwendung kommen, waren auf die Toxizität im Tierversuch geprüft. Die Prüfergebnisse haben ergeben, dass die angegebenen Verbindungen von schwacher oder mittlerer Toxizität sind.

[7] = test system: diploidem Roggen Sorte Voskhod 2; test: Field test of pollen sterilisation, diploid rye Voskhod 2; format: in vivo; details: 1% aqueous emulsion, 10 kg/ha; for Prozentsatz der Sterilität / Anzahl von Körnern der Ähre bei freier Bestäubung / Anzahl von Körnern der Ähre im Isolator: period V of organogenesis; for Anzahl von Körnern der Ähre bei freier Bestäubung: free pollination; for Anzahl von Körnern der Ähre im Isolator: isolated ears; for Prozentsatz des Ansetzens von Körnern bei freier Bestäubung: period V, non-isolated control ears = 100%
Excerpt: Die Emulsion enthält 0,1 Masse% Kalziumalkylbenzolsulfonat und 0,01 Masse% Dimethylformamid. Der Verbrauch an Präparat beträgt 10 kg/ha. Als Kontrolle dienen Pflanzen, behandelt mit einem Lösungsmittel ohne Sterilisationsmittel.

[8] = test system: Winterweizens Sorte Bezostaya 1; test: Field test of pollen sterilisation, winter wheat Bezostaya 1; format: in vivo, Winterweizen; details: 2% aqueous emulsion, 16 kg/ha; for Prozentsatz der Sterilität / Anzahl von Körnern der Ähre bei freier Bestäubung / Anzahl von Körnern der Ähre im Isolator: period V of organogenesis; for Anzahl von Körnern der Ähre bei freier Bestäubung: free pollination; for Anzahl von Körnern der Ähre im Isolator: isolated ears; for Prozentsatz des Ansetzens von Körnern bei breier Bestäubung: period V, non-isolated control ears = 100%
Excerpt: Pflanzen des Winterweizens Sorte Bezostaya 1 werden in der V. Periode der Organogenese durch Zerstäubung einer 2%igen wässrigen Emulsion von N-(2-Dimethylaminoäthyl)-maleaminsäure, N-(3-Dimethylaminopropyl)-maleaminsäure, N-Äthylmaleaminsäure, N-(2-Hydroxyäthyl)-maleaminsäure, N-Karbamoylmaleaminsäure mit Hilfe deiner Rückspritze behandelt. Die Emulsion enthält 0,1 Masse% Kalziumalkylbenzolsulfonat mit 12 bis 14 Kohlenstoffatomen. Als Adjuvans führt man in die Emulsion 0,01 Masse% Tetrahydrofuran ein.
Der Verbrauch an Präparat beträgt 16 kg/ha. Als Kontrolle dienen Pflanzen, behandelt mit einem Verdünner ohne Sterilisationsmitteln.

[9] = test system: diploidem Roggen Sorte Chulpan; test: Field test of pollen sterilisation, diploid rye Chulpan; format: in vivo; details: 1% aqueous emulsion, 8 kg/ha; for Prozentsatz der Sterilität / Anzahl von Körnern der Ähre bei freier Bestäubung / Anzahl von Körnern der Ähre im Isolator: period V of organogenesis; for Anzahl von Körnern der Ähre bei freier Bestäubung: free pollination; for Anzahl von Körnern der Ähre im Isolator: isolated ears; for Prozentsatz des Ansetzens von Körnern bei freier Bestäubung: period V, non-isolated control ears = 100%
Excerpt: as §6
Die Emulsion enthält 0,01 Masse% Tetranydrofuran und 0,1 Masse% Kalziumalkylbenzolsulfonat mit 12 bis 14 Kohlenstoffatomen. Der Verbrauch an Präparat beträgt 8 kg/ha. Als Kontrolle dienen Pflanzen, behandelt mit einem Verdünner ohne Sterilisationsmittel.

[10] = test system: Sommerweizens Sorte Moskovskaya 35; test: Field test of pollen sterilisation, spring wheat Moskovskaya 35; format: in vivo, Sommerweizen; details: 1% aqueous emulsion, 10 kg/ha; for Prozentsatz der Sterilität / Anzahl von Körnern der Ähre bei freier Bestäubung / Anzahl von Körnern der Ähre im Isolator: period V of organogenesis; for Anzahl von Körnern der Ähre bei freier Bestäubung: free pollination; for Anzahl von Körnern der Ähre im Isolator: isolated ears; for Prozentsatz des Ansetzens von Körnern bei freier Bestäubung: period V, non-isolated control ears = 100%
Excerpt: Pflanzen des Sommerweizens Sorte Moskovskaya 35 werden in V. Periode der Organogenese (nach Kupermann) mit einer 1%igen wässrigen Emulsion von N-(2-Dimethyl-aminoäthyl)-maleaminsäure, N-(3-Dimethylaminopropyl)-maleaminsäure, N-Äthylmaleaminsäure, N-(2-Hydroxyäthyl) maleaminsäure bzw. N-Karbamoylmaleaminsäure behandelt. Die Emulsion enthält 0,5 Masse% Kalziumalkylbenzolsulfonat mit 12 bis 14 Kohlenstoffatomen als Emulgierungsmittel und 0,01 Masse% Dimethylformamid als Adjuvans. Der Verbrauch an Präparat beträgt 10 kg/ha. Als Kontrolle dienen Pflanzen, behandelt mit einem Verdünner ohne Sterilisationsmittel.

[11] = test system: Hirse Sorte K-9693 Kormovoe 1; test: Field test of pollen sterilisation, millet K-9693 Kormovoe 1; format: in vivo; details: 1% aqueous emulsion, 6 kg/ha; for Prozentsatz der Sterilität / Anzahl von Körnern der Rispe bei freier Bestäubung / Anzahl von Körnern der Rispe im Isolator: period V of organogenesis; for Anzahl von Körnern der Rispe bei freier Bestäubung: free pollination; for Anzahl von Körnern der Rispe im Isolator: isolated panicles; for Prozentsatz des Ansetzens von Körnern bei freier Bestäubung: period V, non-isolated control = 100%
Excerpt: as §1, §2, §3, §4, §5
Pflanzen der Hirse Sorte K-9693 Kormovoe 1 werden in der V. Periode der Organogenese (nach Kupermann) mit einer 1%igen wässrigen Emulsion von N-(2-Dimethylaminoäthyl) maleaminsäure, N-(3-Dimethylaminopropyl)maleaminsäure, N-Äthylmaleaminsäure, N-Karbamoylmaleaminsäure behandelt. Die Emulsion enthält 0,01 Masse% Dimethylformamid und 0,1 Masse% Kalziumalkylbenzolsulfonat mit 12 bis 14 Kohlenstoffatomen.
Der Verbrauch an Präparat beträgt 6 kg/ha. Als Kontrolle dienen Pflanzen, behandelt mit einem Verdünner ohne Sterilisationsmittel. Die Prüfergebnisse sind in der Tabelle13 dargestellt. […] Periode der Organogenese erhalten.

CCNC(=O)/C=C\C(=O)O [Beispiel 3, N-Äthylmaleaminsäure]
Prozentsatz der Sterilität [1]: 100,0%
Anzahl von Körnern der Rispe bei freier Bestäubung [1]: 200,8
Anzahl von Körnern der Rispe im Isolator [1]: 0,0
Prozentsatz des Ansetzens von Körnern bei freier Bestäubung [1]: 88,3%
Prozentsatz der Sterilität [2]: 99,5%
Anzahl von Körnern der Ähre bei freier Bestäubung [2]: 40,7
Anzahl von Körnern der Ähre im Isolator [2]: 0,2
Prozentsatz des Ansetzens von Körnern bei freier Bestäubung [2]: 95,5%
Prozentsatz der Sterilität [3]: 100,0%
Anzahl von Körnern der Ähre bei freier Bestäubung [3]: 28,2
Anzahl von Körnern der Ähre im Isolator [3]: 0,0
Prozentsatz des Ansetzens von Körnern bei freier Bestäubung [3]: 93,7%
Prozentsatz der Sterilität [4]: 99,4%
Anzahl von Körnern der Ähre bei freier Bestäubung [4]: 52,3
Anzahl von Körnern der Ähre im Isolator [4]: 0,3
Prozentsatz des Ansetzens von Körnern bei freier Bestäubung [4]: 95,4%
Prozentsatz der Sterilität [5]: 100,0%
Anzahl von Körnern der Ähre bei freier Bestäubung [5]: 50,1
Anzahl von Körnern der Ähre im Isolator [5]: 0,0
LD50 [6]: 2000 mg/kg
Prozentsatz der Sterilität [7]: 100,0%
Anzahl von Körnern der Ähre bei freier Bestäubung [7]: 53,0
Anzahl von Körnern der Ähre im Isolator [7]: 0,0
Prozentsatz des Ansetzens von Körnern bei freier Bestäubung [7]: 96,0%
Prozentsatz der Sterilität [8]: 99,4%
Anzahl von Körnern der Ähre bei freier Bestäubung [8]: 42,1
Anzahl von Körnern der Ähre im Isolator [8]: 0,2
Prozentsatz des Ansetzens von Körnern bei breier Bestäubung [8]: 98,1%
Prozentsatz der Sterilität [9]: 99,4%
Anzahl von Körnern der Ähre bei freier Bestäubung [9]: 49,8
Anzahl von Körnern der Ähre im Isolator [9]: 0,3
Prozentsatz des Ansetzens von Körnern bei freier Bestäubung [9]: 87,7%
Prozentsatz der Sterilität [10]: 98,5%
Anzahl von Körnern der Ähre bei freier Bestäubung [10]: 26,7
Anzahl von Körnern der Ähre im Isolator [10]: 0,4
Prozentsatz des Ansetzens von Körnern bei freier Bestäubung [10]: 97,1%

CN(C)CCNC(=O)/C=C\C(=O)O [Beispiel 54, N-(2-Dimethylaminoäthyl) maleaminsäure]
Prozentsatz der Sterilität [11]: 100,0%
Anzahl von Körnern der Rispe bei freier Bestäubung [11]: 124,2
Anzahl von Körnern der Rispe im Isolator [11]: 0,0
Prozentsatz des Ansetzens von Körnern bei freier Bestäubung [11]: 84,7%

CN(C)CCCNC(=O)/C=C\C(=O)O [Beispiel 55, N-(3-Dimethylaminopropyl)maleaminsäure]
Prozentsatz der Sterilität [11]: 100,0%
Anzahl von Körnern der Rispe bei freier Bestäubung [11]: 100,8
Anzahl von Körnern der Rispe im Isolator [11]: 0,0
Prozentsatz des Ansetzens von Körnern bei freier Bestäubung [11]: 68,7%

O=C(O)/C=C\C(=O)NCCO [Beispiel 4, N-(2-Hydroxyäthyl)-maleaminsäure]
Prozentsatz der Sterilität [1]: 100,0%
Anzahl von Körnern der Rispe bei freier Bestäubung [1]: 215,0
Anzahl von Körnern der Rispe im Isolator [1]: 0,0
Prozentsatz des Ansetzens von Körnern bei freier Bestäubung [1]: 94,6%
Prozentsatz der Sterilität [2]: 99,3%
Anzahl von Körnern der Ähre bei freier Bestäubung [2]: 39,8
Anzahl von Körnern der Ähre im Isolator [2]: 0,3
Prozentsatz des Ansetzens von Körnern bei freier Bestäubung [2]: 93,4%
Prozentsatz der Sterilität [3]: 100,0%
Anzahl von Körnern der Ähre bei freier Bestäubung [3]: 28,7
Anzahl von Körnern der Ähre im Isolator [3]: 0,0
Prozentsatz des Ansetzens von Körnern bei freier Bestäubung [3]: 95,3%
Prozentsatz der Sterilität [4]: 99,6%
Anzahl von Körnern der Ähre bei freier Bestäubung [4]: 51,6
Anzahl von Körnern der Ähre im Isolator [4]: 0,2
Prozentsatz des Ansetzens von Körnern bei freier Bestäubung [4]: 94,2%
Prozentsatz der Sterilität [5]: 99,3%
Anzahl von Körnern der Ähre bei freier Bestäubung [5]: 53,2
Anzahl von Körnern der Ähre im Isolator [5]: 0,3
Prozentsatz des Ansetzens von Körnern bei freier Bestäubung ([5]; period V, non-isolated control ears = 100%): 94,7%
LD50 [6]: 1500 mg/kg
Prozentsatz der Sterilität [7]: 98,4%
Anzahl von Körnern der Ähre bei freier Bestäubung [7]: 52,2
Anzahl von Körnern der Ähre im Isolator [7]: 0,8
Prozentsatz des Ansetzens von Körnern bei freier Bestäubung [7]: 94,6%
Prozentsatz der Sterilität [8]: 100,0%
Anzahl von Körnern der Ähre bei freier Bestäubung [8]: 37,1
Anzahl von Körnern der Ähre im Isolator [8]: 0,0
Prozentsatz des Ansetzens von Körnern bei breier Bestäubung [8]: 86,5%
Prozentsatz der Sterilität [9]: 99,8%
Anzahl von Körnern der Ähre bei freier Bestäubung [9]: 50,1
Anzahl von Körnern der Ähre im Isolator [9]: 0,1
Prozentsatz des Ansetzens von Körnern bei freier Bestäubung [9]: 88,2%
Prozentsatz der Sterilität [10]: 100,0%
Anzahl von Körnern der Ähre bei freier Bestäubung [10]: 27,0
Anzahl von Körnern der Ähre im Isolator [10]: 0,0
Prozentsatz des Ansetzens von Körnern bei freier Bestäubung [10]: 98,2%

CCNC(=O)/C=C\C(=O)O [Beispiel 56, N-Äthylmaleaminsäure]
Prozentsatz der Sterilität [11]: 100,0%
Anzahl von Körnern der Rispe bei freier Bestäubung [11]: 114,7
Anzahl von Körnern der Rispe im Isolator [11]: 0,0
Prozentsatz des Ansetzens von Körnern bei freier Bestäubung [11]: 78,2%

O=C(O)/C=C\C(=O)NCCO [Beispiel 57, N-(2-Hydroxyäthyl)maleaminsäure]
Prozentsatz der Sterilität [11]: 100,0%
Anzahl von Körnern der Rispe bei freier Bestäubung [11]: 127,2
Anzahl von Körnern der Rispe im Isolator [11]: 0,0
Prozentsatz des Ansetzens von Körnern bei freier Bestäubung [11]: 86,7%

NC(=O)NC(=O)/C=C\C(=O)O [Beispiel 58, N-Karbamoylmaleaminsäure]
Prozentsatz der Sterilität [11]: 100,0%
Anzahl von Körnern der Rispe bei freier Bestäubung [11]: 133,6
Anzahl von Körnern der Rispe im Isolator [11]: 0,0
Prozentsatz des Ansetzens von Körnern bei freier Bestäubung [11]: 91,1%

Reference: patent EP0374249A1, “METHOD OF STERILIZING PLANT POLLEN” (VSESOJUZNY NAUCHNO-ISSLEDOVATELSKY INST. SELSKOKHOZYAISTV. …, priority 1988, dated 1989)
